Laboratory results: patent publication US8481489B2, “GH secretagogues and uses thereof” (Theratechnologies Inc., priority 2003, dated 2013)
Several values for one entry are separate records, joined by “and”; a condition that tells them apart may be missing. Identical values can stand only once. Marks after values point to notes of the source that are not given here.

What was measured:
[1] = in vivo
[2] = system: HIV-infected patients with abdominal fat accumulation; experiment: Quality of life questionnaire (PLC), HIV lipodystrophy study; format: in vivo, human
Description: A health-related quality of life questionnaire (PLC, Quality of Life Profile for the Chronically Ill) was self-administered to 61 patients randomized to receive placebo or TH9507 at 1 or 2 mg s.c. daily. The PLC questionnaire included a general, non-specific part assessing 6 dimensions of global health as well as a disease specific part capturing impact of enlarged abdominal girth, abdominal bloating, tenseness and pain, as well as diarrhea, visible facial changes, visible changes in physical appearance, and the feeling of being recognized as an HIV positive person.
Study population included 54 men and 7 women. […] Slight changes were observed within the treated groups in the positive mood and social well-being scores but were not considered clinically significant.

GH secretion = experiment: GH response and other pituitary hormones, 7-day study in healthy men; format: in vivo, human; conditions: dose dependent between 0.5 and 1 mg, similar at 1 and 2 mg
Description: The study used a randomized, double-blind, placebo-controlled design and was conducted in healthy men, aged 50 to 60 years old. Subjects (8 per group) were injected S.C. once a day for 7 consecutive days with placebo, 0.5, 1 or 2 mg of TH9507. Circulating IGF-1 levels were measured on Days 1 to 7. […]

IGF-1 and IGFBP-3 [3] = experiment: Serum IGF-1 and IGFBP-3 (RIA), HIV lipodystrophy study; conditions: change from baseline, Week 12, mean (SD)
Description: (§2) Design: Randomized, placebo-controlled, multi-center, dose ranging (placebo, 1 mg or 2 mg SC QD), parallel group, 12-week study
(§3) At the baseline visit, anthropometric measurements were obtained. […] Biochemical parameters including insulin-like growth factor-I, glucose, insulin, lipid profile (cholesterol, HDL, LDL, triglyceride, non HDL and the ratio of cholesterol:HDL), free fatty acids, HbA1C, IGFBP-3, and bone markers (serum osteocalcin and NTX-1), CD4, viral load, and a pregnancy test for female subjects were determined in the fasting state. In addition, insulin and glucose response to a 75 gram standard glucose challenge were assessed and a quality of life questionnaire was administered.
(§4) Clinical laboratory testing was performed by a central lab. Serum IGF-1 was measured after acid-ethanol extraction using the Esoterix RIA kit (Esoterix Inc., Calabasas Hill, Calif.), with a sensitivity of 10 ng/mL. Intra- and inter-assay coefficients of variation were 4.6-20% and 9-10%, respectively. Serum IGFBP-3 was measured using the Esoterix RIA kit (Esoterix Inc., Calabasas Hill, Calif.) with a sensitivity of 0.3 mg/mL. Intra- and inter-assay coefficients of variation were 5.1-13% and 5.5-17%, respectively. HDL, LDL, total cholesterol, triglycerides and FFA were determined by enzymatic calorimetric assay. Glucose was measured by enzymatric test (Gluco-Quant®, Roche diagnostics, Indianapolis, Ind.). HbA1c was determined by chromatography.
(§5) Other endpoints included IGF-I, lipid parameters, glucose and insulin, CD4, viral load, bone markers, and quality of life. A sample size of 20 patients/group was planned to assess a statistically significant change of 10% or more in intra-group analyses. The planned dropout rate was 25% and therefore 60 patients were enrolled into the study. Baseline data are compared between the groups by F-test based on ANOVA for continuous variables and Chi-Square test for categorical variables. Change over time between groups is compared by ANOVA or the Chi-Square test. Where appropriate, data were rank transformed prior to analysis. Changes within each group are determined by t-test. The ITT (intent to treat) population is defined as all subjects who received at least one dose of the study treatment. Descriptive statistics and analyses for all efficacy and safety analyses are performed on the ITT population. End of study, 12 week, data are used to calculate changes in body composition. For biochemical indices, the last observation available is used to calculate change. Imputation for missing data is not performed. For body composition, end of study data are used to calculate change. Interim analyses were not performed. Results are mean (SD) unless otherwise noted. All statistical tests were performed with a two-sided Type I error level of 0.05.

IGF-1 and IGFBP-3 [4] = experiment: Circulating IGF-1 and IGFBP-3 levels, insomnia study; format: in vivo, human; conditions: week 2
[5] = system: HIV-infected patients with abdominal fat accumulation; experiment: Lipid parameters, HIV lipodystrophy study; conditions: mean (SD); for Chol:HDL, Δ / HDL, Δ / LDL, Δ / NONHDL Cholesterol, Δ / Total Cholesterol, Δ / Triglycerides, Δ: change from baseline, Week 12; for Triglyceride levels change / ratio of cholesterol to HDL change: last observation values
Description: as §2, §3, §4, §5

[6] = system: type II diabetic patients; experiment: Glucose control in type II diabetic patients; format: in vivo, human; conditions: for glycosylated hemoglobin (HbA1c) levels: Week 12
Description: (§1) A double-blind placebo-controlled study was conducted in 53 type II diabetic patients (age=61±7 [SD]; 34% female) on stable antidiabetic medication (26% on insulin). Patients were randomized to parallel groups to receive daily subcutaneous administration of a placebo, 1 mg or 2 mg TH9507, respectively.
Clinically relevant changes in antidiabetic medications occurred with a similar incidence in the three treatment groups.

IGF-1 = IGF-1 levels in type II diabetic patients; format: in vivo, human; conditions: end of 12-week treatment period
Description: as §1

[7] = system: HIV-infected patients with abdominal fat accumulation; experiment: Body composition by DEXA, HIV lipodystrophy study; conditions: for Fat Mass, Δ / Lean Body Mass, Δ / Limb Fat, Δ / Trunk Fat, Δ: change from baseline, Week 12, mean (SD)
Description: as §2
Patients: 61 HIV-infected patients (BMI 28±3 [SD] kg/m^2, 28% diabetic or glucose intolerant) with increased waist circumference (102 cm±8 [SD]) and waist/hip (1.0±0.1 [SD])
At the baseline visit, anthropometric measurements were obtained. Total body lean and fat mass as well as regional fat mass in the trunk and extremities were assessed by DEXA. Abdominal subcutaneous and visceral fat area and the ratio of VAT to SAT were determined by cross-sectional CT at L4-L5.
Whole body and regional DEXA (dual energy X-ray absorptiometry) and cross-sectional abdominal CT scans were performed at the individual study sites based on previously established protocols and were standardized across sites. Digitized images were sent to a central reading center, St. Lukes Roosevelt Hospital, for analysis by independent experts without knowledge of treatment assignment. Each site was given a procedure manual to follow in obtaining the body composition data and was certified in the proper technique. For the CT scans, parameters were standardized as follows: Tube Voltage=120 kV, Tube Current=250 mA, Exposure=375 mAs, matrix 512×512. DFOV was set to include the entire slice into the field of view. For the DEXA scans total body scans were performed with analysis of lean body mass, total fat mass, and regional fat mass in the trunk and extremities as previously described (16).
Body composition endpoints included trunk fat and trunk to limb fat ratio by DEXA and VAT and VAT:SAT by CT scan. […] Baseline data are compared between the groups by F-test based on ANOVA for continuous variables and Chi-Square test for categorical variables. Change over time between groups is compared by ANOVA or the Chi-Square test. Where appropriate, data were rank transformed prior to analysis. Changes within each group are determined by t-test. The ITT (intent to treat) population is defined as all subjects who received at least one dose of the study treatment. Descriptive statistics and analyses for all efficacy and safety analyses are performed on the ITT population. End of study, 12 week, data are used to calculate changes in body composition. […] Imputation for missing data is not performed. For body composition, end of study data are used to calculate change. […] Results are mean (SD) unless otherwise noted. All statistical tests were performed with a two-sided Type I error level of 0.05.

## CC/C=C/CC(=O)N[C@@H](Cc1ccc(O)cc1)C(=O)N[C@@H](C)C(=O)N[C@@H](CC(=O)O)C(=O)N[C@@H](C)C(=O)N[C@H](C(=O)N[C@@H](Cc1ccccc1)C(=O)N[C@H](C(=O)N[C@@H](CC(N)=O)C(=O)N[C@@H](CO)C(=O)N[C@@H](Cc1ccc(O)cc1)C(=O)N[C@@H](CCCNC(=N)N)C(=O)N[C@@H](CCCCN)C(=O)N[C@H](C(=O)N[C@@H](CC(C)C)C(=O)NCC(=O)N[C@@H](CCC(N)=O)C(=O)N[C@@H](CC(C)C)C(=O)N[C@@H](CO)C(=O)N[C@@H](C)C(=O)N[C@@H](CCCNC(=N)N)C(=O)N[C@@H](CCCCN)C(=O)N[C@@H](CC(C)C)C(=O)N[C@@H](CC(C)C)C(=O)N[C@@H](CCC(N)=O)C(=O)N[C@@H](CC(=O)O)C(=O)N[C@H](C(=O)N[C@@H](CCSC)C(=O)N[C@@H](CO)C(=O)N[C@@H](CCCNC(=N)N)C(=O)N[C@@H](CCC(N)=O)C(=O)N[C@@H](CCC(N)=O)C(=O)NCC(=O)N[C@@H](CCC(=O)O)C(=O)N[C@@H](CO)C(=O)N[C@@H](CC(N)=O)C(=O)N[C@@H](CCC(N)=O)C(=O)N[C@@H](CCC(=O)O)C(=O)N[C@@H](CCCNC(=N)N)C(=O)NCC(=O)N[C@@H](C)C(=O)N[C@@H](CCCNC(=N)N)C(=O)N[C@@H](C)C(=O)N[C@@H](CCCNC(=N)N)C(=O)N[C@@H](CC(C)C)C(N)=O)[C@@H](C)CC)C(C)C)[C@@H](C)O)[C@@H](C)CC [TH9507, (hexenoyl trans-3)hGRF(1-44)NH2]
[1]
  Anti-TH9507 antibodies: not detected
  Blood pressure and heart rate: did not change
  Safety laboratory values, including hemoglobin, WBC, LFT's, creatinine: did not differ
[2]; 1 mg only, P<0.05 vs baseline, NS vs placebo
  abdominal pain (PLC): Improvement
[2]; 1 mg s.c. daily
  bloating score change (PLC): −0.50
  enlarged abdominal girth score change (PLC): −0.93
[2]; 1 mg, P=0.07 vs baseline, NS vs placebo
  tenseness (PLC): trend for improvement
[2]; 2 mg s.c. daily
  bloating score change (PLC): −0.69
  enlarged abdominal girth score change (PLC): −1.19
[2]; 1 or 2 mg s.c. daily
  subscales of the main portion of the PLC, between groups: No significant difference
GH secretion
  GH response: increased rapidly
IGF-1 and IGFBP-3 [3]; 1 mg SC QD
  IGF-1, Δ: 87 (67) ng/mL and 87.5 (66.9)* ng/mL
  IGFBP-3, Δ: 0.6 (0.7)* Mg/L
IGF-1 and IGFBP-3 [3]; 2 mg SC QD
  IGF-1, Δ: 123 (79) ng/mL and 122.6 (79.1)* ng/mL
  IGFBP-3, Δ: 0.6 (0.5)* Mg/L
IGF-1 and IGFBP-3 [4]; 0.1 mg
  Circulating IGF-1 level vs placebo: did not affect
  Circulating IGFBP-3 level vs placebo: did not affect
IGF-1 and IGFBP-3 [4]; 1 mg
  Circulating IGF-1 level vs placebo: significantly increased
  Circulating IGFBP-3 level vs placebo: significantly increased
[5]; 1 mg SC QD
  Chol:HDL, Δ: −0.3 (0.6)
  HDL, Δ: 0.0 (0.2) mmol/L
  LDL, Δ: 0.1 (0.8) mmol/L
  NONHDL Cholesterol, Δ: −0.4 (1.5) mmol/L
  Total Cholesterol, Δ: −0.4 (1.7) mmol/L
  Triglycerides, Δ: −1.1 (4.4) mEq/L
  Triglyceride levels change: −0.9 (4.2)
  ratio of cholesterol to HDL change: −0.3 (0.7)
[5]; 2 mg SC QD
  Chol:HDL, Δ: −0.3 (0.7)
  HDL, Δ: 0.1 (0.1)* mmol/L
  LDL, Δ: 0.2 (0.7) mmol/L
  NONHDL Cholesterol, Δ: −0.1 (0.7) mmol/L
  Total Cholesterol, Δ: −0.1 (0.8) mmol/L
  Triglycerides, Δ: −0.9 (1.3)* mEq/L
  Triglyceride levels change: −0.9 (1.2)
  ratio of cholesterol to HDL change: −0.3 (0.6)
[6]; 1 mg
  glycosylated hemoglobin (HbA1c) levels: a decrease
[6]; 2 mg
  glycosylated hemoglobin (HbA1c) levels: no change
[6]; placebo, 1 mg, 2 mg, treatment period
  insulin relative response to an oral glucose tolerance test, between groups: No statistically significant differences
IGF-1
  IGF-1 levels: dose-related increase
[7]; 1 mg SC QD, 12 weeks
  Trunk fat change: −4.6%
[7]; 1 mg SC QD
  Fat Mass, Δ: −0.4 (1.8) kg
  Lean Body Mass, Δ: 0.7 (2.0) kg
  Limb Fat, Δ: 0.1 (0.5) kg
  Trunk Fat, Δ: −0.5 (1.4) kg
[7]; 2 mg SC QD, 12 weeks
  Trunk fat change: −9.2%
[7]; 2 mg SC QD
  Fat Mass, Δ: −1.4 (2.0) kg and −1.4 (2.0)* kg
  Lean Body Mass, Δ: 1.7 (2.3) kg and 1.7 (2.3)* kg
  Limb Fat, Δ: −0.3 (0.8) kg
  Trunk Fat, Δ: −1.1 (1.3)* kg
[7]; 1 and 2 mg SC QD, 12 weeks
  limb fat: no significant change
